This note sets out measurements from patent publication US20260223843A1, “I[…]” (FYTEKO SA, priority 2022, published 2026).

Assay type in all cases: in vivo
The subject of data set [1] is whitefly (Bemisia tabaci). Nature of the data set: Control of whitefly in cotton plants (translaminar efficacy). The note with it: 2nd instar nymphs on cotton leaf, adults counted, mg/L: Polyferulate 4, Spirotetramat 18.6, Imidacloprid 21.8, combinations 4 + 18.6 and 4 + 21.8. The method, then:
Three-week-old cotton plants were defoliated so that only one true leaf remained. 20-30 female adults of B. tabaci were clipped to the underside of the leaf for egg deposition and removed after 16 h. The silverleaf whitefly (Bemisia tabaci, also informally referred to as the sweet potato whitefly) is one of several species of whitefly that are currently important agricultural pests.
Once the 2nd instar nymphs had settled the upper side of the leaf was sprayed using a TLC spraying device (Merck Inc.). Before spraying the number of nymphs was counted on each leaf. The application volume was 500 μL of tested insecticides solutions diluted in tap water. The final concentration of each component appears in the table. Translaminar efficacy was evaluated by counting adults 10 days after application.

Data set [2] relates to brown plant hopper (Nilaparvata lugens). Briefly: Control of the brown plant hopper in rice plants (spray, mortality). Conditions: mortality of hopper larvae on sprayed rice plants; mg/L: Polyferulate 48, Chlorantraniliprole 45, Cyantraniliprole 135, combinations 48 + 45 and 48 + 135. The method, then: To determine the efficacy of insecticides on the mortality percentage of brown planthopper an experiment was conducted in the laboratory. The seedlings of 30-40 days old rice plant (Oryza sativa) were transplanted in plastic pot. The rice plants were grown in plastic pots with Mylar film cage and kept in the laboratory. Rice plants are sprayed with the preparation of the active compound at the desired concentration and are infested with larvae of the brown plant hopper (Nilaparvata lugens) while the rice leaves are still moist. Ten brown planthopper were released in each pot that was selected randomly.
The brown planthopper (BPH), Nilaparvata lugens (Hemiptera: Delphacidae) is a planthopper species that feeds on rice plants (Oryza sativa L.). These insects are among the most important pests of rice, which is the major staple crop for about half the world's population. After 3 days, the mortality in percentage is determined. 100% means that all the hopper larvae have been killed; 0% means that none of the hopper larvae have been killed.

Data set [3] in a line: Insecticide uptake by leaves of rice plants (LC-MS/MS). Conditions: chlorantraniliprole in rice leaves 72 h after smearing 5 mL; chlorantraniliprole 100 μg/mL, polyferulate 25 μg/mL where present; three replicates. As for the experimental part:
Rice plants were cultivated in a plant growth chamber with a 12 h day and high intensity lighting. The rice leaves near the roots were smeared with 5 mL of solution containing chlorantraniliprole (100 μg·mL−1) or chlorantraniliprole (100 μg·mL−1) and polyferulate solution (25 μg·mL−1) and covered. When the droplets on the leaves were dried, the plastic was taken away. The rice leaves were harvested 72 h after treated. A sample of the rice leaves (5 g) was weighted and extracted with acetonitrile and the content of uptake chlorantraniliprole determinate by LC-MS/MS. Each experiment was repeated for three replicates.

For `O=[N+]([O-])NC1=NCCN1Cc1ccc(Cl)nc1` [Imidacloprid], the “Observed efficacy (%) 10 days after treatment” value in data set [1] is on record as 45%.
As for `CNC(=O)c1cc(C#N)cc(C)c1NC(=O)c1cc(Br)nn1-c1ncccc1Cl` [Cyantraniliprole], the “Observed efficacy (%) 3 days after treatment” value in data set [2] was determined as 30%.
`CCOC(=O)OC1=C(c2cc(C)ccc2C)C(=O)N[C@]12CC[C@@H](OC)CC2` [Spirotetramat]: the “Observed efficacy (%) 10 days after treatment” value in data set [1] came to 75%.
In the case of `CNC(=O)c1cc(Cl)cc(C)c1NC(=O)c1cc(Br)nn1-c1ncccc1Cl` [Chlorantraniliprole], in data set [2], the “Observed efficacy (%) 3 days after treatment” value was 50%. In data set [3], the “Content of insecticide in the plant material” value was determined as 38.0 ± 0.3 µg/g.
